Results on five compounds are retold here after patent publication US20220259213A1, “PYRROLOPYRAZOLE DERIVATIVES, PREPARATION METHOD THEREOF AND APPLICATION THEREOF IN MEDICINE” (SHANGHAI MEDICILON INC., priority 2019, published 2022).

SMILES strings stand for the structures.

In this experiment the target is T1, H+/K+ATPase (Oryctolagus cuniculus, UniProt P27112).
T1 construct: The stomach tissue of the rabbit was separated; from tissue; host or cells: rabbit stomach (fundus) mucosa; membrane pellet obtained by differential and Ficoll centrifugation
T1 sequence (P27112 whole entry): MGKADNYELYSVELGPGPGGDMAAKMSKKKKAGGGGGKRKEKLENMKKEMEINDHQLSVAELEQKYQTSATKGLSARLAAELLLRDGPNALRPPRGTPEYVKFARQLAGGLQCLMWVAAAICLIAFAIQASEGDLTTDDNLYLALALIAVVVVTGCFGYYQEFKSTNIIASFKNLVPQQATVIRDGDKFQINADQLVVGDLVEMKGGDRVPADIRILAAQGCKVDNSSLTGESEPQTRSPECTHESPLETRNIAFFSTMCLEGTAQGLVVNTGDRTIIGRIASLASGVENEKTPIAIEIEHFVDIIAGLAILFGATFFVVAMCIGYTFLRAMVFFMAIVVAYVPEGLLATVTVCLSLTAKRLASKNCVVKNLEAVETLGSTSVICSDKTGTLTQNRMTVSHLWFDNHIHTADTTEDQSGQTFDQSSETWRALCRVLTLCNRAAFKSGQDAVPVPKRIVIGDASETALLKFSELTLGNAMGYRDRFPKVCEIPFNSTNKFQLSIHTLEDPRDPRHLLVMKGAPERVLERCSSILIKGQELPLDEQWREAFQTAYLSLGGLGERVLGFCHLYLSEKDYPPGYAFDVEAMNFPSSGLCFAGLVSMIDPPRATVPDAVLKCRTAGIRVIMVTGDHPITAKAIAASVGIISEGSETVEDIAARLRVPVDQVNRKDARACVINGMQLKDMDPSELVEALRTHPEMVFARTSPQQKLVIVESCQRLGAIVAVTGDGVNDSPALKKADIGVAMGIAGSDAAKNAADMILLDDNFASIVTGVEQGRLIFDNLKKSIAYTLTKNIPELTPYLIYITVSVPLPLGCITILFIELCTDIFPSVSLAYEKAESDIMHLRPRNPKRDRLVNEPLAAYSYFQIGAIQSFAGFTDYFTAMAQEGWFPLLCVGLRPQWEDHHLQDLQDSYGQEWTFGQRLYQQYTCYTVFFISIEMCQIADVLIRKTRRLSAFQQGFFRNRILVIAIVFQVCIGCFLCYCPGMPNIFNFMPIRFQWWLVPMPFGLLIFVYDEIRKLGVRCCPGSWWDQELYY
T1 sequence (P18597 whole entry partner): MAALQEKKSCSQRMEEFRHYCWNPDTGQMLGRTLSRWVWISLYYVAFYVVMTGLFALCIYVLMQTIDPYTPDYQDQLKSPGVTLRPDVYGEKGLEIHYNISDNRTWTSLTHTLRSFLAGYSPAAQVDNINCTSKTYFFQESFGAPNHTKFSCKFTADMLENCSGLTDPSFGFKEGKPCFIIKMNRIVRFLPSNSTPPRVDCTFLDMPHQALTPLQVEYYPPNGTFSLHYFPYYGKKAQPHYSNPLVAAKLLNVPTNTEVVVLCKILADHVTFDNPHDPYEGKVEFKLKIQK
Briefly: determination of compounds' inhibition of H+/K+ATPase enzyme activity (malachite green). Type of experiment: biochemical. The following applies: enzyme extracted from rabbit stomach mucosa; 500 μM ATP; pH 6.5; 37° C.; OD 620 nm; read-out: IC50(μM) inhibition rate (IC50) of H+/K+ATPase enzyme activity. The protocol:
Test example: determination of compounds' inhibition of H+/K+ATPase enzyme activity
The following experiment is used to determine the inhibitory effect of the compound of the present invention on the H+/K+ATPase enzyme activity.
Enzyme working solution: titrating the enzyme, diluting the enzyme with buffer solution 1, and taking 5 μl of the diluted solution into 50 μl reaction system.
ATP solution: 100 mM ATP was diluted to 5 mM with no K+buffer, and 5 μl of the diluted solution was added to the 50 μl reaction system, that is, the final concentration of ATP was 500 μM.
MLG color development liquid: 0.12% MLG, 7.5% ammonium molybdate, 11% Tween-20 was mixed as 100:25:2, and adding 15 μl of the mixture into each well during detection.
Buffer 1: 5 mM Tris-HCl pH 6.5, 5 mM magnesium chloride (magnesium chloride), 10 μM valinomycin (valinomycin).
Buffer 2: 50 mM Tris-HCl pH 6.5, 5mM magnesium chloride (magnesium chloride), 10 μM valinomycin (valinomycin), 20 mM KCl.
3.1. H^+/K^+ ATPase enzyme extraction
(1) The stomach tissue of the rabbit was separated, and the blood was washed with tap water, food residue.
(5) After homogenization, if there were larger tissue particles, they could be removed by centrifugation (600 g, 10 min), and then the supernatant was transfered to a clean centrifuge tube. After centrifugation at 20000 g for 30 minutes, then the supernatant was transferred to a clean centrifuge tube at 100000 g for 90 minutes, and the precipitate was collected.
(7) Resuspending the precipitate with homogenization buffer, blowing uniformly, and the protein concentration was measured by Bradford. Freezing in tubes at −80° C. for later use.
3.2. H+/K+ATPase activity experiment
(1) Adding 35 μl of reaction buffer to each experimental well, and then adding 35 μl of buffer 1.
(2) Adding 5 μl buffer 1 containing 10% DMSO to the whole enzyme and buffer well.
(3) Adding 5 μl of 10× compound working solution to the compound well and mixing well.
(4) Adding 5 μl of buffer 1 to the buffer well.
(5) Adding 5 μl of 10× enzyme working solution to the remaining wells, mixing and incubating at 37° C. for 30minutes.
(6) Adding 5 μl of 10×ATP working solution to all experimental wells, mixing and incubating at 37° C. for 20 min.
(7) Adding 15 μl MLG chromogenic solution to all experimental wells, and uniformly mixing and incubating at room temperature for 5-30 min.
(8) The reading number of 620 nm was detected by an M5 instrument.
The inhibition rate is calculated with the following formula:
Inhibition rate (IC50)=[OD (sample well)−OD (full enzyme well containing potassium chloride)]/[(OD (full enzyme well containing potassium chloride)−(OD (full enzyme well without potassium chloride)]×100%
Consider `CN1Cc2nn(Cc3cccnc3)c(-c3ccc4c(c3)CCO4)c2C1` [Example 1, 3-(2,3-dihydrobenzofuran-5-methyl)-5-methyl-2-(pyridin-3-ylmethyl)-2,4,5,6-tetrahydropyrrole[3,4-c]pyrazole], for which the IC50 was determined as 3.55 µM.

For `CN1Cc2nn(Cc3cccnc3)c(-c3ccccc3F)c2C1` [Example 4, (2-fluorophenyl)-5-methyl-2-(pyridin-3-ylmethyl)-2,4,5,6-tetrahydropyrrole[3,4-c]pyrazole], the IC50 was 0.674 µM.

With `CN1Cc2nn(Cc3cccnc3)c(-c3ccc4occc4c3)c2C1` [Example 2, 3-(benzofuran-5-yl)-5-methyl-2-(pyridin-3-ylmethyl)-2,4,5,6-tetrahydropyrrole[3,4-c]pyrazole], the IC50 turned out to be 1.38 µM.

In the case of `COc1ccc(Cn2nc3c(c2-c2ccccc2F)CN(C)C3)cn1` [Example 5, 3-(2-fluorobenzeneyl)-2-((6-methoxypyridin-3-yl)methyl)-5-methyl-2,4,5,6-tetrahydropyrrolo[3,4-c]pyrazole], the IC50 turned out to be 0.365 µM.

Take `CN1Cc2nn(Cc3cccnc3)c(-c3ccc4[nH]cnc4c3)c2C1` [Example 3, (5-methyl-2-(pyridin-3-ylmethyl)-2,4,5,6-tetrahydropyrrole[3,4-c]pyrazol-3-yl)-1H-benzo[d]imidazole]: the IC50 was found to be 24 µM.
